Values joined by “and” are separate entries in the source; they are usually repeats but may differ in a detail not shown here. Identical values can stand only once.
Legend:
Type in all cases: physicochemical, human
[1] = GC/MS of serum sample: number of times of freezing and thawing (Table I); design: key to Rate of increase or decrease / Rate of increase or decrease (first value, increase): detection intensity relative to 2 freeze-thaw cycles = 1; settings: for Rate of increase or decrease: detection intensity relative to 1 at 2 times; for Number of times when compound is affected: detection intensity changed by 30% or more vs 2 times of freezing and thawing
Method: (§1) After standing, the blood sample was subjected to centrifugation under a condition of room temperature, 3500 rpm, and 5 minutes. […] After centrifugation, the blood-collecting vessel was left to stand at room temperature, and the serum was isolated during this time. Here, in order to investigate how the detection intensity of molecules contained in the sample was affected in cases where the time during which the blood-collecting vessel was left at room temperature was set to 1 hour and 6 hours as compared to that in a case where the time was set to 30 minutes, preparations were performed under the respective conditions of 30 minutes, 1 hour, and 6 hours. The obtained serum sample was frozen and stored. Here, in order to investigate how the detection intensity of molecules contained in the sample was affected in cases where freezing and thawing was performed 4 times, 6 times, and 10 times after freezing as compared to that in a case where freezing and thawing was performed 2 times after freezing, freezing and thawing was performed under the respective conditions of 2, 4, 6, and 10 times.
(§2) Frozen blood plasma samples and serum samples were subjected to GC/MS or LC/MS. In GC/MS, the blood plasma samples and serum samples were subjected to methoxymation and trimethylsilylation and then introduced to GC-MS.
(§3) GC/MS was conducted using GCMS·TQ8040 (Shimadzu Corporation) that was a GC·MS equipped with AOC·20i (Shimadzu Corporation) as an autosampler.
(§4) Column: BPX5 (inner diameter of 0.25 mm, length of 30 m, and film thickness of 0.25 μm) (SGE)
(§5) Column temperature: maintained at 60° C. for 2 minutes, then raised at 15° C./min, and maintained at 330° C. for 3 minutes.
(§6) Inlet temperature: 250° C.
(§7) Carrier gas control mode: constant linear velocity of 39.0 cm/sec
(§8) Sample introduction method: split (split ratio of 30:1) Injection volume: 1 μL
(§9) Ionization method: electron ionization
(§10) Ionization current: 60 μA
(§11) Interface temperature: 280° C.
(§12) Ion source temperature: 200° C.
(§13) Mode: multiple reaction monitoring (MRM)
The rate of increase or decrease in Table I is the value of detection intensity relative to 1 that is the detection intensity in a case where the number of times of freezing and thawing is set to 2 times.

[2] = LC/MS of blood plasma sample: time from blood collection to centrifugation (Table D); settings: for Increase or decrease: detection intensity, blood collection to centrifugation, after 12 hours vs 15 minutes; for Rate of increase or decrease (second value, decrease) / Rate of increase or decrease (first value, increase): different from individual to individual, relative to 1 at 15 minutes, collection to centrifugation, after 12 hours; for Rate of increase or decrease (second value, decrease): individuals with decrease; for Rate of increase or decrease (first value, increase): individuals with increase
Method: (§14) At room temperature, 5 mL of blood from a healthy subject was taken into a blood-collecting vessel containing EDTA, and the blood-collecting vessel was inverted for mixing, then cooled, and allowed to stand at 4° C. Here, in order to investigate how the detection intensity of molecules contained in the sample was affected in a case where the time to cooling was set to 5 minutes or more as compared to that in a case where the time to cooling was set to 1 minute or less, preparations were performed under both the former condition and the latter condition. After standing, the blood sample was subjected to centrifugation under a condition of 4° C., 3000 rpm, and 15 minutes. […] After centrifugation, the blood-collecting vessel was left to stand at room temperature for 30 minutes, and the blood plasma was isolated during this 30 minutes. The obtained blood plasma sample was frozen and stored. Here, in order to investigate how the detection intensity of molecules contained in the sample was affected in cases where freezing and thawing was performed 4 times, 6 times, and 10 times after freezing as compared to that in a case where freezing and thawing was performed 2 times after freezing, freezing and thawing was performed under the respective conditions of 2, 4, 6, and 10 times.
as §2
(§15) Analysis column: Discovery HS F5-3 (inner diameter of 2.1 mm, length of 150 mm, film thickness of 3 μm) (Sigma-Aldrich)
(§16) Column temperature: 40° C.
(§17) (A) 0.1% formic acid (dissolved in water)
(§18) (B) 0.1% formic acid (dissolved in acetonitrile)
(§19) Flow velocity: 0.25 mL/min
(§20) Ionization method: electrospray
(§21) Temperature: • Desolvation Line (DL) temperature: 250° C. • Heat block temperature: 400° C. • Interface temperature: 300° C.
(§22) Gas flow rate: • Nebulizer gas flow rate: 3.0 L/min • Drying gas flow rate: 10.0 L/min • Heating gas flow rate: 10.0 L/min
as §13
The rate of increase or decrease in Table D is the value of detection intensity relative to 1 that is the detection intensity in a case where the time from blood collection to centrifugation is set to 15 minutes.

[3] = GC/MS of serum sample: time from centrifugation to isolation (Table H); design: key to Rate of increase or decrease / Rate of increase or decrease (first value, increase): detection intensity relative to 1 at 30 min centrifugation-to-isolation; settings: for Rate of increase or decrease: detection intensity relative to 1 at 30 minutes; for Increase or decrease: detection intensity
Method: as §1, §2, §3, §4, §5, §6, §7, §8, §9, §10, §11, §12, §13
The rate of increase or decrease in Table H is the value of detection intensity relative to 1 that is the detection intensity in a case where the time from centrifugation to isolation is set to 30 minutes.

[4] = LC/MS of serum sample: number of times of freezing and thawing (Table M); design: key to Rate of increase or decrease: detection intensity relative to 1 at 2 freeze-thaw cycles; settings: for Rate of increase or decrease: 6 times of freezing and thawing; for Number of times when compound is affected / Increase or decrease: serum sample, LC/MS; for Number of times when compound is affected: detection intensity changed by 30% or more vs 2 times of freezing and thawing; for Increase or decrease: detection intensity vs 2 times of freezing and thawing
Method: as §1, §2, §15, §16, §17, §18, §19, §20, §21, §22, §13
The rate of increase or decrease in Table M is the value of detection intensity relative to 1 that is the detection intensity in a case where the number of times of freezing and thawing is set to 2 times.

[5] = GC/MS of blood plasma sample: time from blood collection to centrifugation (Table A); settings: blood collection to centrifugation; for Rate of increase or decrease: detection intensity relative to 1 at 15 minutes; for Increase or decrease: detection intensity
Method: as §14, §2, §3, §4, §5, §6, §7, §8, §9, §10, §11, §12, §13
The rate of increase or decrease in Table A is the value of detection intensity relative to 1 that is the detection intensity in a case where the time from blood collection to centrifugation is set to 15 minutes.

[6] = GC/MS of serum sample: time from blood collection to centrifugation (Table G); settings: blood collection to centrifugation; for Rate of increase or decrease: detection intensity relative to 1 at 15 minutes; for Increase or decrease: detection intensity
Method: as §1, §2, §3, §4, §5, §6, §7, §8, §9, §10, §11, §12, §13
The rate of increase or decrease in Table G is the value of detection intensity relative to 1 that is the detection intensity in a case where the time from blood collection to centrifugation is set to 15 minutes.

[7] = GC/MS of blood plasma sample: number of times of freezing and thawing (Table C); settings: for Rate of increase or decrease: detection intensity relative to 1 at 2 times, freezing and thawing 4 times; for Increase or decrease: detection intensity, freezing and thawing 4 times vs 2 times
Method: as §14, §2, §3, §4, §5, §6, §7, §8, §9, §10, §11, §12, §13
The rate of increase or decrease in Table C is the value of detection intensity relative to 1 that is the detection intensity in a case where the number of times of freezing and thawing is set to 2 times.

[8] = serum, GC/MS, freezing and thawing 10 times
[9] = detection intensity, serum, GC/MS, freezing and thawing 10 times vs 2 times
[10] = serum sample, GC/MS, detection intensity vs 2 times of freezing and thawing

CCC(N)C(=O)O (stereo not shown) [2-Aminobutyric acid]
Rate of increase or decrease [1, 8]: 2.63
Increase or decrease [1, 9]: Increase
Increase or decrease [2]: Different from individual
Rate of increase or decrease (second value, decrease) [2]: 0.65
Rate of increase or decrease (first value, increase) [2]: 1.53
Rate of increase or decrease ([3]; after 6 hours): 1.60
Increase or decrease ([3]; after 6 hours vs 30 minutes): Increase
Rate of increase or decrease ([4]; relative to 1 at 2 times, different from individual to individual, first value (increase)): 1.31
Rate of increase or decrease ([4]; relative to 1 at 2 times, different from individual to individual, second value (decrease)): 0.61
Number of times when compound is affected [4]: 6 times
Increase or decrease [4]: Different from individual

CCCCCCCC/C=C\CCCCCCCC(=O)O [Oleic acid]
Rate of increase or decrease ([5]; after 12 hours): 4.05
Increase or decrease ([5]; after 12 hours vs 15 minutes): Increase

O=C[C@H](O)[C@@H](O)[C@@H](O)[C@H](O)C(=O)O [Galacturonic acid]
Rate of increase or decrease ([6]; after 8 hours): 0.60 and 0.64
Increase or decrease ([6]; after 8 hours vs 15 minutes): Decrease
Rate of increase or decrease [7]: 1.44
Increase or decrease [7]: Increase
Rate of increase or decrease ([3]; after 1 hour): 1.87
Increase or decrease ([3]; after 1 hour vs 30 minutes): Increase

CCCCCCCCCCCCCCCCCC(=O)O [Stearic acid]
Rate of increase or decrease ([1]; 10 times of freezing and thawing): 1.33
Number of times when compound is affected ([1]; serum sample, GC/MS): 10 times
Increase or decrease [1, 10]: Increase
Rate of increase or decrease ([5]; after 12 hours): 2.13
Increase or decrease ([5]; after 12 hours vs 15 minutes): Increase

CCCCCCCCCCCCCC(=O)O [Myristic acid]
Rate of increase or decrease ([6]; after 8 hours): 1.30
Increase or decrease ([6]; after 8 hours vs 15 minutes): Decrease
Rate of increase or decrease ([5]; after 12 hours): 1.55
Increase or decrease ([5]; after 12 hours vs 15 minutes): Increase

O=C(O)C=C(CC(=O)O)C(=O)O [Aconitic acid]
Rate of increase or decrease ([6]; after 4 hours): 1.52
Increase or decrease ([6]; after 4 hours vs 15 minutes): Increase
Rate of increase or decrease ([5]; after 4 hours): 0.41
Increase or decrease ([5]; after 4 hours vs 15 minutes): Decrease
Rate of increase or decrease ([3]; after 1 hour): 0.04
Increase or decrease ([3]; after 1 hour vs 30 minutes): Decrease

N[C@@H](Cc1c[nH]c2ccccc12)C(=O)O [Tryptophan]
Increase or decrease [2]: Different from individual
Rate of increase or decrease (second value, decrease) [2]: 0.66
Rate of increase or decrease (first value, increase) [2]: 1.62
Rate of increase or decrease ([4]; detection intensity relative to 1 at 2 times): 0.66
Number of times when compound is affected [4]: 6 times
Increase or decrease [4]: Decrease

CCCCCC(=O)O [Cabroic acid]
Rate of increase or decrease [7]: 1.58
Increase or decrease [7]: Increase
Number of times when compound is affected ([1]; serum sample, GC/MS): 10 times
Increase or decrease [1, 10]: Increase

O=C(O)C(O)Cc1ccc(O)cc1 (stereo not shown) [4-Hydroxyphenyllactic acid]
Rate of increase or decrease ([5]; after 12 hours): 1.33
Increase or decrease ([5]; after 12 hours vs 15 minutes): Increase
Rate of increase or decrease ([3]; after 1 hour): 0.64
Increase or decrease ([3]; after 1 hour vs 30 minutes): Decrease

CCCCC/C=C\C/C=C\C/C=C\C/C=C\CCCC(=O)O [Arachidonic acid]
Rate of increase or decrease [1, 8]: 1.52
Increase or decrease [1, 9]: Increase
Rate of increase or decrease ([5]; after 4 hours): 1.56
Increase or decrease ([5]; after 4 hours vs 15 minutes): Increase

Source: patent US20220146526A1, “METHOD FOR EVALUATING SAMPLE, ANALYSIS METHOD, METHOD FOR DETECTING DEGRADED SAMPLE, MARKER FOR DETECTING DEGRADED BLOOD PLASMA SAMPLE, AND MARKER FOR DETECTING DEGRADED SERUM SAMPLE” (SHIMADZU CORPORATION, priority 2019, published 2022)
